Assay results published in US10570426B2, “Method for producing methacrylic acid ester and novel methacrylic acid ester synthetase” (Mitsubishi Chemical Corporation, priority 2014, dated 2020).

How the values were obtained:
[1] = test system: AAT derived from Chamaemelum nobile; assay: Substrate specificity of AAT derived from Chamaemelum nobile; format: biochemical; conditions: 0.12 mM acyl-CoA, pH 8.5, butyl methacrylate = 100%; for Relative activity with methanol: 40 mM methanol; for Relative activity with n-butanol: 40 mM n-butanol; for Relative activity with ethanol: 40 mM ethanol; for Relative activity with n-hexanol: 40 mM n-hexanol
Description: The substrate specificity of AAT was evaluated by the purified fraction obtained by MonoQ 5/50 GL column chromatography in Example 9.
In a 2-mL capacity screw vial, a reaction solution (50 mM Tris-HCl (pH 8.5), 40 mM alcohol, 0.12 mM acyl-CoA) was prepared, into which the purified fraction was added to be 500 μL. The vial was sealed and the mixture was reacted at 30° C. for one hour.
After the reaction was completed, 50 μL of 10 mM 2-hexanon was added as the internal sstandard, and solvent extraction was conducted using 200 μL octane or hexane. Centrifugation was conducted and 8 μL of the separated liquid was injected into GC to measure the ester produced through the enzymatic reaction. The amount of ester was calculated by the calibration curve using an internal standard method. The GC measuring conditions were set the same as in Example 9 except that the column temperature was adjusted appropriately for each of the target esters (see Table 4). To determine the quantity of n-butyl propionate, since the present column is unable to separate its peak from the peak of n-butanol, the absolute calibration curve method was employed under the GC-MS analysis conditions the same as in Example 1 (however, temperature conditions were changed to 80° C.→1 min→10° C./min→200° C.·5 min).
Relative activity values are shown based on the specific activity of butyl methacrylate set as 100%.

[2] = test system: AAT derived from Chamaemelum nobile; assay: Km of AAT derived from Chamaemelum nobile; format: biochemical; conditions: 40 mM n-hexanol, Tris-HCl pH 8.5, 30° C., 2 hours
Description: The Km values for methacrylyl-CoA and acetyl-CoA were measured using the purified fraction obtained by MonoQ 5/50 GL column chromatography in Example 9. A 500 μL reaction solution was prepared by adding the purified fraction, 40 mM n-hexanol and methacrylyl-CoA or acetyl-CoA at each concentration to a 50 mM Tris-HCl buffer (pH 8.5). The vial was sealed, and reaction was carried out at 30° C. for 2 hours.
After the reaction was completed, the same GC analysis as in Example 10 was conducted to measure the ester produced in the enzymatic reaction. The […] (Km) was applied to a Michaelis-Menten expression to calculate the values using a Kaleidagraph software made by HULINKS.

In the case of CCC(=O)SCCNC(=O)CCNC(=O)[C@H](O)C(C)(C)COP(=O)(O)OP(=O)(O)OC[C@H]1O[C@@H](n2cnc3c(N)ncnc32)[C@H](O)[C@@H]1OP(=O)(O)O [propionyl-CoA], the “Relative activity with methanol” value [1] is reported as 4% and the “Relative activity with n-butanol” value [1] is reported as 136%.
In the case of CCCC(=O)SCCNC(=O)CCNC(=O)[C@H](O)C(C)(C)COP(=O)(O)OP(=O)(O)OC[C@H]1O[C@@H](n2cnc3c(N)ncnc32)[C@H](O)[C@@H]1OP(=O)(O)O [butyryl-CoA], the “Relative activity with n-butanol” value [1] is reported as 40%.
With CC(C)C(=O)SCCNC(=O)CCNC(=O)[C@H](O)C(C)(C)COP(=O)(O)OP(=O)(O)OC[C@H]1O[C@@H](n2cnc3c(N)ncnc32)[C@H](O)[C@@H]1OP(=O)(O)O [isobutyryl-CoA] the “Relative activity with ethanol” value [1] was 5% and the “Relative activity with n-butanol” value [1] was 114%.
For C=C(C)C(=O)SCCNC(=O)CCNC(=O)[C@H](O)C(C)(C)COP(=O)(O)OP(=O)(O)OC[C@H]1O[C@@H](n2cnc3c(N)ncnc32)[C@H](O)[C@@H]1OP(=O)(O)O [methacrylyl-CoA], the “Relative activity with ethanol” value [1] was 4%, the “Relative activity with methanol” value [1] was 1% and the “Relative activity with n-butanol” value [1] was 100%. For the same molecule, the “Relative activity with n-hexanol” value [1] was 182% and the Km [2] was 41 µM.
In the case of CCCCCC(=O)SCCNC(=O)CCNC(=O)[C@H](O)C(C)(C)COP(=O)(O)OP(=O)(O)OC[C@H]1O[C@@H](n2cnc3c(N)ncnc32)[C@H](O)[C@@H]1OP(=O)(O)O [hexanoyl-CoA], the “Relative activity with ethanol” value [1] is reported as 11% and the “Relative activity with n-butanol” value [1] is reported as 21%.
For CC(=O)SCCNC(=O)CCNC(=O)[C@H](O)C(C)(C)COP(=O)(O)OP(=O)(O)OC[C@H]1O[C@@H](n2cnc3c(N)ncnc32)[C@H](O)[C@@H]1OP(=O)(O)O [acetyl-CoA], the “Relative activity with n-butanol” value [1] was 37%, the “Relative activity with n-hexanol” value [1] was 84% and the Km [2] was 711 µM.
